doi:10.1101/2023.07.31.551370, “A diversified, widespread microbial gene cluster encodes homologs of methyltransferases involved in methanogenesis” (bioRxiv, 2023)

Legend:
ClMlp2 [1] = target: T1, ClMlp2; test: UV-visible spectroscopy, loss of methylcob(III)alamin absorbance at […] nm, steady-state kinetics; type: biochemical, Clostridium ljungdahlii; details: co-substrate methylcob(III)alamin (non-physiological methyl donor); strictly anoxic nitrogen atmosphere; reverse of the hypothesized physiological reaction; fit with substrate inhibition; substrate in
T1 construct: gene mlp2; recombinant ClMlp2

ClMlp2 [2] = tested on: T1, ClMlp2; test: as above; type: biochemical, Clostridium ljungdahlii; details: co-substrate methylcob(III)alamin (non-physiological methyl donor); strictly anoxic nitrogen atmosphere; reverse of the hypothesized physiological reaction; fit with substrate inhibition; read-out: apparent KM

Structure (SMILES): [SeH2] [selenide]
- KI (selenide substrate inhibition constant) (ClMlp2 [1]): 3.83 mM
- Km (ClMlp2 [2]): 79.8 µM
